Data from patent US20230119141A1, “USES OF TAXIFOLIN FOR R[…]” (PHYTO TECH CORP., priority 2021, published 2023).

Tested on: SARS-CoV-2
Test: SARS-CoV-2 infection in Golden Syrian hamsters, viral loads in swabs and organs
Type: in vivo
Protocol: The therapeutic efficacy of taxifolin against SARS-CoV-2 infection was examined in Golden Syrian hamsters, a small animal model that most closely recapitulates clinical and pathological features of COVID-19 in humans. See, e.g., Imai, M, et al., Proc. Nat. Acad. Sci. 117(28):16587-16595 (2020); Reagan-Shaw, S., et al., FASEB J. 22:659-661 (2007). […] Animals in the taxifolin group (n=15) received prophylactic treatment of taxifolin (66.7 mg/kg) through oral gavage (OG) before the viral infection.
After SARS-CoV-2 inoculation, animals in the taxifolin group were orally given taxifolin (66.7 mg/kg) at days 1, 3, and 5. Animals in the control group (n=10) received an equal amount of PBS through oral gavage. At day 7, certain animals in the taxifolin (n=6) group and control group (n=5) were sacrificed, and the viral loads in major organs were tested.

`O=C1c2c(O)cc(O)cc2OC(c2ccc(O)c(O)c2)C1O` (stereo not shown) [taxifolin, 2-(3,4-dihydroxyphenyl)-3,5,7-trihydroxychroman-4-one] was tested, and the “viral load in nasal swabs” value (day 5 after infection, taxifolin 66.7 mg/kg oral gavage prophylactic and at days 1, 3, 5, n=8, control ~3×10^6) was ~7×10^4 RNA copies/100 μL, the “viral loads in oral swabs vs control” value (day 7, taxifolin 66.7 mg/kg oral gavage) was “decreased the viral loads in oral swabs” and the “viral loads in the trachea vs control” value (day 7, taxifolin 66.7 mg/kg oral gavage, n=4 per group) was “clearly reduced the viral loads in the trachea”. For the same molecule, the “viral loads in nasal swabs vs control” value (days 3 and 5 after viral infection, taxifolin 66.7 mg/kg oral gavage) was “significantly lowered the viral loads in nasal swabs”.
